Test results published in US20230212571A1, “COMPOSITIONS AND METHODS FOR DELIVERING POLYNUCLEOTIDES” (NeOnc Technologies, Inc., priority 2020, published 2023).

Columns and labels:
[1] = system: Mgp^−/− mouse model of AVM; assay: Brain appearance and immunostaining of brain sections; type: in vivo; settings: Mgp^−/− mice, IN 2-weeks
Experimental: Immunostaining was performed as previously described^15. ([…], Golden […], et al. Glioma-associated endothelial cells are chemoresistant to temozolomide. J Neurooncol. 2009; 95(1):13-22). Primary antibodies used were rabbit anti-MMP2, mouse anti-MMP9 (1:150, Abgent), rabbit anti-phospho-Smad1/5 ([…]/465) (1:50, Abgent), rabbit anti-BMP4, rabbit anti-PAI-1 (1:50, Proteintech), rabbit anti-VEGF (1:50, Santa Cruz Biotechnology), rabbit anti-HIF-1α (1:50, Cell Signaling Technology), and rabbit anti-phospho-Smad3 ([…]/425) (1:50, GeneTex). Secondary antibodies used were biotinylated anti-rabbit and biotinylated anti-mouse (1:300, Vector Laboratories), accordingly. Pictures were taken in an Eclipse 80i microscope (Nikon). Images shown are representative of three-five independent experiments. In vivo efficacy studies were performed using 3-week-old Mgp^+/- C57BL/6 mice^16,17 (Yao Y, Jumabay M, Wang A, Boström K I. Matrix Gla protein deficiency causes arteriovenous malformations in mice. J Clin Invest. 2011; 121(8):2993-3004) (Yao Y, Yao […], et al. Reducing Jagged 1 and 2 levels prevents cerebral arteriovenous malformations in matrix Gla protein deficiency. Proc Nat Acad Sci USA. 2013; 110(47):19071-19076). provided by Dr. Yucheng Yao (UCLA, Los Angeles) and mated to obtain the appropriate genotypes. Only about 10-15% of each litter were born with the Mgp^-/- genotype, and among those, only about 45% survived until the end of the treatment and/or the imaging of the brain vasculature, due to the extreme severity of the disease in this mouse model. These animals not only suffer AVMs in the brain, but all major organs are also affected and dysfunctional. Thus, […] might die due to several causes, including stroke, severe lung inflammation that causes respiratory failure-especially when anesthesia is used-, organ failure due to liver and/or spleen malfunction, heart failure, etc., drastically limiting the number of the Mgp^-/- mice available for the CTA studies. […] Treatment with 0.08 nmol/mouse of miR-18a or scramble microRNA was administered IN daily for 2-weeks. 2.5 μL/nostril were delivered in RNase-free water. Ultra-high-resolution in vivo computed tomography angiography (CTA) was performed in mice for 3D imaging of whole brain vascular architecture^18, ([…], Rendon D, et al. Ultra-High-Resolution In vivo Computed Tomography Imaging of Mouse Cerebrovasculature Using a Long Circulating Blood Pool Contrast Agent. Scientific reports. 2015; 5:10178) as described in Data. The vascular data was quantified using ImageJ. Regions of interest encompassing the Circle of Willis (CoW) and the azygous of the anterior cerebral artery (AzACA) and its branches were selected in CT images using thick slab maximum intensity projection (MIP) or 3D volume rendering. The images were converted to 8-bit grayscale and thresholded to highlight the vasculature containing pixels. The pixels were analyzed as particles and normalized to results from the wildtype mice (WT, Mgp^+/+). Immediately after imaging, mice were euthanized, and brains were frozen in Clear Frozen Section Compound (VWR) and stored at -80° C. Blood was collected for complete blood count (Antech). The lungs, livers, spleens, femurs, and kidneys were harvested and fixed in 10% formalin. Photographs of the stained sections were captured using an Eclipse 80i microscope (Nikon).

AVM-BEC = settings: previous results from our laboratory (Ferreira 2014); cited from earlier work

hsa-miR-18a-5p (UAGGUGCAUCUAGUGCAGAUAG; chemistry not given here; listed as Homo sapiens) [small non-coding RNA molecule involved in post-transcriptional regulation of gene expression; Dharmacon]
activation (phosphorylation) of Smad1/5 in brain sections (IHC) [1]: decreased | expression of BMP4 in brain sections (IHC) [1]: decreased | expression of HIF-1α in brain sections (IHC) [1]: decreased | expression of PAI-1 in brain sections (IHC) [1]: decreased | expression of VEGF in brain sections (IHC) [1]: decreased | signs of fresh hemorrhage and presence of abnormally enlarged blood vessels in the brain [1]: reduced | TSP-1 release by AVM-BECs (ELISA of cell supernatants) (AVM-BEC): induces TSP-1 release
